Reference: patent US4138491A, “Method for treating diabetes” (Daiichi Seiyaku Co., Ltd., priority 1976, dated 1979)

What was measured:
blood sugar level [1] = test: Blood sugar lowering activity, fed mouse; format: in vivo; conditions: 25 mg/kg PO
Description: (§1) The compounds of the present invention were orally administered to normal rats, mice, dogs and hereditary diabetic mice(AYKK-mice), and the blood sugar lowering activity was examined.
(§2) Test animals which were used included animals which had been fasted for 24 hours to achieve an empty stomach, and animals which had been fed to achieve a full stomach without any restriction of diet. A sample aqueous solution or suspension was orally administered, and blood was sampled with the passage of time from the tail vein or the cephalic vein in order to determine the level of blood sugar by the glucose-oxidase method.

blood insulin [2] = test: Insulin releasing action, fed rats; format: in vivo, rat; conditions: 25 mg/kg iv
Description: (§3) Among the test animals fed rats were anesthetized by administration of pentobarbital (40 mg/kg, ip), and administered, intravenously with an isotonic sodium chloride solution of Compound A. An aqueous solution of the sample was orally administered to fed mice. In both cases blood was sampled from the tail vein with the passage of time, and the blood insulin was determined by the radioimmunoassay method of Morgen et al [Diabetes, Vol. 12, pp 115 (1963)]. At the same time blood sugar was also determined. […] The amount of insulin released in Table 4 was obtained by determining the difference between the blood insulin level at 5 points (5, 10, 20, 30, 40 minutes) during a 40 minute period after administration of the sample in the case of rats or 3 points (0.5, 1.0, 2.0 hours) during a 2 hour period after administration of the sample in the case of mice and the blood insulin level at 0 minute just before administration of the sample and then by summing up these differences.

[3] = test system: blood platelet aggregation induced by collagen in rat platelet rich plasma; test: Blood platelet aggregation inhibiting activity (collagen induced, in vitro); format: cell-based; conditions: read-out: Platelet Aggregation Inhibition Activity, ID50
Description: It is generally said that blood platelet aggregability is accelerated in a diabetes patient and that this secondarily causes blood vessel disorders. […] Thus, based on this the compounds of the present invention are expected to be useful in preventing and improving the secondary vasular lesions of diabetes mellitus.
Citrated rat blood was centrifuged in order to obtain platelet rich plasma, and to 0.4 ml of this plasma was added 50 μl of sample solution. To the resulting solution was added 50 μl of collagen suspension under stirring, and platelet aggregation reaction was determined according to the method of Born [Nature, Vol. 194, pp. 927 (1962)]. The concentration of the sample (ID50) which inhibits 50% of the aggregation reaction of the control without the test sample added is shown in Table 6 below.

Acute toxicity (rat) = conditions: in vivo, read-out: Acute Toxicity (rat) ID50
blood sugar level [4] = test: Glucose tolerance test in normal rats (oral compound, glucose load 1 hour later); format: in vivo, normal rat
Description: (§4) One index for the treatment of diabetes is to improve this glucose tolerance. The compound of the present invention was orally administered to normal rats, Streptozotocin-induced mildly diabetic rats and AYKK-mice, and thereafter glucose was administered intraperitoneally 1 hour later, and the glucose tolerance was examined. […] Further, a lowering of blood sugar in the glucose tolerance test using normal rats was examined with the passage of time, and the results obtained are given in Table 1 below.
(§5) A sample aqueous solution or suspension was orally administered to the test animals which had been fasted for 24 hours and one hour later glucose was intraperitoneally or subcutaneously administered to the test animals. Thereafter, blood was sampled from the tail vein with the passage of time in order to determine the blood sugar level by the glucose-oxidase method.

blood sugar level [5] = test: Blood sugar lowering activity, fasted rat; format: in vivo
Description: as §1, §2

blood sugar level [6] = test: Glucose tolerance test in AYKK mice; format: in vivo, AYKK mouse; conditions: 25 mg/kg PO; glucose 1 g/kg; sum of increments at 15, 30, 60, 90 min vs control; 100 = no improvement
Description: as §4, §5
*5AYKK-mouse was obtained by mating a yellow mouse having symptoms of […]

blood sugar level [7] = test: Glucose tolerance test in streptozotocin-induced mildly diabetic rats; format: in vivo, rat (Wistar strain); conditions: 10 mg/kg PO; glucose 1 g/kg; sum of increments at 15, 30, 60, 90 min vs control; 100 = no improvement
Description: as §4, §5
*4The streptozotocin-induced mildly diabetic rats were produced by […]

blood sugar level [8] = test: Blood sugar lowering activity, fed AγKK (AYKK) mouse, hereditary diabetic; format: in vivo; conditions: fed AγKK mouse
Description: as §1, §2

blood sugar level [9] = test: Blood sugar lowering activity, fasted beagle; format: in vivo, beagle dog; conditions: 25 mg/kg PO
Description: as §1, §2

serum lactate level = test: Influence on serum lactate level, repeated administration for 4 days; format: in vivo, normal rat; conditions: Compound A 200 mg/kg/day (phenformin dose not given)
Description: The biguanide drugs heretofore used as a treatment for diabetes are said undesirably to cause acidosis due to an increase of serum lactate level when such drugs are repeatedly administered. The compounds of the present invention were repeatedly administered for 4 days to normal rats and the serum lactate level was determined every day to compare such with the administration of phenformine which is one example of a biguanide drug.
Compound A was repeatedly administered for 4 days to normal rats in a dosage of 200 mg/kg/day, and blood was sampled with the passage of time in order to determine the serum lactate level.

blood insulin [10] = test: Insulin releasing action, fed mice; format: in vivo, mouse; conditions: fed mice, 25 mg/kg po
Description: as §3

SMILES: c1ccc(C(CC2=NCCN2)c2ccccc2)cc1 [Compound A, 2-(2,2-diphenyl)ethylimidazoline]
- Blood Sugar Level (control = 100), 1 Hr (blood sugar level [1]; 1 h): 54%
- Blood Sugar Level (control = 100), 2 Hrs (blood sugar level [1]; 2 h): 67%
- Blood Sugar Level (control = 100), 3 Hrs (blood sugar level [1]; 3 h): 65%
- Blood Sugar Level (control = 100), 5 Hrs (blood sugar level [1]; 5 h): 76%
- Blood Sugar Level (blood insulin [2]; after 90 minutes, control = 100): 62%
- Amount of Insulin Released (blood insulin [2]; sum of differences at 5, 10, 20, 30, 40 min): 250±15 μunit/ml
- IC50 [3]: 70 µM
- LD50 (Acute toxicity (rat)): 562 mg/kg
- Glucose Tolerance Improving Activity (blood sugar level [4]; 10 mg/kg PO, glucose 2 g/kg, sum of increments at 15, 30, 60, 90 min vs control, 100 = no improvement): 15.7%
- Blood Glucose Level, 0 min (blood sugar level [4]; 10 mg/kg, glucose 2 g/kg, 0 min): 72 ± 3 mg/dL
- Blood Glucose Level, 15 min (blood sugar level [4]; 10 mg/kg, glucose 2 g/kg, 15 min): 83 ± 6 mg/dL
- Blood Glucose Level, 30 min (blood sugar level [4]; 10 mg/kg, glucose 2 g/kg, 30 min): 87 ± 4 mg/dL
- Blood Glucose Level, 60 min (blood sugar level [4]; 10 mg/kg, glucose 2 g/kg, 60 min): 76 ± 3 mg/dL
- Blood Glucose Level, 90 min (blood sugar level [4]; 10 mg/kg, glucose 2 g/kg, 90 min): 68 ± 4 mg/dL
- Blood Glucose Level, before glucose load (-60 min.) (blood sugar level [4]; 10 mg/kg, glucose 2 g/kg, -60 min): 84 ± 1 mg/dL
- blood sugar level maintained after glucose load (blood sugar level [4]; normal rats, Table 1, in words): maintains the blood sugar level in the range of the fasting blood sugar level
- rise in blood sugar level due to the glucose load (blood sugar level [4]; normal rats, Table 1, in words): scarcely any rise in blood sugar level
- Blood Sugar Level (control = 100), 1 Hr (blood sugar level [5]; 10 mg/kg PO): 76%
- Blood Sugar Level (control = 100), 2 Hrs (blood sugar level [5]; 10 mg/kg PO): 71%
- Blood Sugar Level (control = 100), 3 Hrs (blood sugar level [5]; 10 mg/kg PO): 71%
- Blood Sugar Level (control = 100), 5 Hrs (blood sugar level [5]; 10 mg/kg PO): 65%
- Blood Sugar Level (control = 100), 1 Hr (blood sugar level [5]; 25 mg/kg PO): 72%
- Blood Sugar Level (control = 100), 2 Hrs (blood sugar level [5]; 25 mg/kg PO): 67%
- Blood Sugar Level (control = 100), 3 Hrs (blood sugar level [5]; 25 mg/kg PO): 57%
- Blood Sugar Level (control = 100), 5 Hrs (blood sugar level [5]; 25 mg/kg PO): 67%
- Glucose Tolerance Improving Activity (blood sugar level [6]): 52.5%
- Glucose Tolerance Improving Activity (blood sugar level [7]): 25.2%
- Blood Sugar Level (control = 100), 1 Hr (blood sugar level [8]; 10 mg/kg PO): 72%
- Blood Sugar Level (control = 100), 2 Hrs (blood sugar level [8]; 10 mg/kg PO): 71%
- Blood Sugar Level (control = 100), 3 Hrs (blood sugar level [8]; 10 mg/kg PO): 62%
- Blood Sugar Level (control = 100), 5 Hrs (blood sugar level [8]; 10 mg/kg PO): 63%
- Blood Sugar Level (control = 100), 1 Hr (blood sugar level [8]; 25 mg/kg PO): 44%
- Blood Sugar Level (control = 100), 2 Hrs (blood sugar level [8]; 25 mg/kg PO): 46%
- Blood Sugar Level (control = 100), 3 Hrs (blood sugar level [8]; 25 mg/kg PO): 41%
- Blood Sugar Level (control = 100), 5 Hrs (blood sugar level [8]; 25 mg/kg PO): 49%
- Blood Sugar Level (control = 100), 1 Hr (blood sugar level [9]; 1 h): 70%
- Blood Sugar Level (control = 100), 2 Hrs (blood sugar level [9]; 2 h): 66%
- Blood Sugar Level (control = 100), 3 Hrs (blood sugar level [9]; 3 h): 64%
- Serum Lactate Level, 0 Day (serum lactate level; 0 Day): 0.993±0.051 μ mol/ml
- Serum Lactate Level, After 1 Day (serum lactate level; After 1 Day): 1.386±0.073 μ mol/ml
- Serum Lactate Level, After 4 Days (serum lactate level; After 4 Days): 1.125±0.113 μ mol/ml
- Blood Sugar Level (blood insulin [10]; after 2 hours, control = 100): 69.8%
- Amount of Insulin Released (blood insulin [10]; sum of differences at 0.5, 1.0, 2.0 hours): 57±14.2 μunit/ml
